Laboratory results from ChEMBL document CHEMBL4610027, “Identification of Mycobacterium tuberculosis CtpF as a target for designing new antituberculous compounds” (Bioorg Med Chem, 2020).
In brackets after ≈: the same amount, converted by molar mass. Activity calls are given as the source filed them. No cut-off for these calls is given here.

Tests used:
[1] = (§1) Inhibition of calcium stimulated Mycobacterium tuberculosis H37Ra CtpF ATPase activity using Na2ATP as substrate preincubated for 30 mins followed by substrate addition and measured after 30 mins by colorimetric analysis
[2] = tested on: Mycobacterium tuberculosis; experiment: Antimycobacterial activity against Mycobacterium tuberculosis H37Rv incubated for 6 days by resazurin dye-based colorimetric method; assay type: functional; conditions: 144 h
[3] = Hemolytic activity against human erythrocytes assessed as hemolysis at 100 ug/ml incubated for 2 hrs by spectrophotometric analysis; assay type: ADME, cell-based, Erythrocyte; conditions: read-out: Activity
[4] = Cytotoxicity against mouse MHS cells assessed as cell death at 100 ug/ml incubated for 48 hrs by crystal violet staining based spectrophotometric analysis relative to control
[5] = tested on: Mycobacterium tuberculosis; experiment: Antimycobacterial activity against Mycobacterium tuberculosis H37Rv assessed as inhibition of bacterial growth at MIC incubated for 21 days by colony formation assay relative to control; assay type: functional
[6] = Octanol/water partition coefficient, log P of the compound; assay type: physicochemical
[7] = tested on: Mycobacterium tuberculosis; experiment: Potency index, ratio of CPA MIC to test compound MIC for Mycobacterium tuberculosis H37Rv; assay type: functional
[8] = tested on: Mycobacterium tuberculosis H37Ra; experiment: Inhibition of calcium stimulated Mycobacterium tuberculosis H37Ra CtpF ATPase activity at 100 uM using Na2ATP as substrate preincubated for 30 mins followed by substrate addition and measured after 30 mins by colorimetric analysis relative to control
[9] = tested on: Mycobacterium tuberculosis H37Ra; experiment: as §1
Listeria monocytogenes = experiment: Inhibition of Listeria monocytogenes Ca2+ ATPase
[10] = Inhibition of Bacillus cereus Ca2+ ATPase

Row | SMILES | IC50 [1] [µM] | MIC [2] [µg/mL] | hemolysis at 2 h, 100 ug/ml [3] [%] | Activity [4] [%] | inhibition [5] | logP [6] | inhibition (INH) [5] [%] | Ratio [7] | inhibition [8] [%] | inhibition [9] | INH (Listeria monocytogenes) [µM] | IC50 [10] [µM]
1 | CCC[C@H](C)NC(=O)CSc1nc2cc(S(=O)(=O)Nc3ccccc3OC)ccc2o1 | 35.9 | > 200 | 1 | 39.5 | inactive | 4.08 |  |  |  |  |  | 
2 | COCC(=O)Nc1c(C(=O)OC)n(CCC(C)C)c2ncc(N[C@@H](C)C(C)(C)O)cc12 | 8 | 50 (≈ 115 µM) | 0.6 | 19.8 |  | 3.32 | 60.7 | 0.5 |  |  |  | 
3 | O=C(CCCC[C@@H]1SC[C@@H]2NC(=O)N[C@@H]21)NCc1cn(-c2ccccc2)nc1-c1ccccc1 | 4.1 | 100 (≈ 210 µM) | 2.4 | 30 |  | 3.34 | 29.5 |  | 48.2 |  |  | 
4 | CC(=O)C1=C(O)[C@@H]2[C@H]3c4c[nH]c5cccc(c45)C[C@H]3C(C)(C)N2C1=O [CYCLOPIAZONIC ACID] | 7.2 | 100 (≈ 297 µM) | 6.6 | 50.8 |  | 2.21 | 29.9 |  |  | Dose-dependent effect | 918 | 4
5 | CCCCC(=O)Nc1cccc(C(=O)NCCCNc2cccnc2)c1 | 4.2 | 100 (≈ 282 µM) | 1.2 | 21.4 |  | 2.91 | 52.9 |  | 46.9 |  |  | 
6 | NS(=O)(=O)[C@H]1CC=C(CNC(=O)CCCc2c[nH]c3ccccc23)S1 | 4.4 | 50 (≈ 132 µM) | 2 | 12.9 |  | 1.68 | 64 | 0.5 | 44.9 |  |  | 
7 | C[C@@H](OC(=O)CCCNC1=NS(=O)(=O)c2ccccc21)C(=O)c1c[nH]c2ccccc12 | 11.8 | 100 (≈ 228 µM) | 2.1 | 31.6 |  | 1.82 | 37.3 |  |  |  |  | 
